{
  "source": "patent US12178940B2",
  "about": "“Controlled hydrogel delivery of focal adhesion kinase inhibitor for decreased scar formation” (THE BOARD OF TRUSTEES OF THE LELAND STANFORD JUNIOR …, priority 2018, dated 2024)",
  "key": {"Other Targets": {"tested_on": "Other Targets", "details": "Table 1; cited from earlier work"}, "incisional HTS model": {"tested_on": "incisional HTS model", "details": "intradermal injection; cited from earlier work"}, "murine dorsal incisions": {"tested_on": "murine dorsal incisions", "assay_type": "in vivo", "details": "daily local subcutaneous injection", "protocol": "Hypertrophic scar model and local subcutaneous injection of FAKI: Incisional wounding and development of hypertrophic scars on the dorsum of mice were performed by previously described methods (Aarabi et al., 2007; Wong et al., 2011a). Animals were randomly assigned to receive 15, 75, or 150 μM concentrations of FAKI dissolved in 10% DMSO via daily local subcutaneous injection adjacent to the wound site. […] Specimens were harvested at Day 14 post-injury for histology and scar areas were quantified (FIG. 6)."}, "advanced solid tumors": {"tested_on": "advanced solid tumors", "details": "cited from earlier work"}, "FAK": {"molecular_target": "FAK (Homo sapiens, UniProt Q05397)", "sequence (Q05397 whole entry, species assumed)": "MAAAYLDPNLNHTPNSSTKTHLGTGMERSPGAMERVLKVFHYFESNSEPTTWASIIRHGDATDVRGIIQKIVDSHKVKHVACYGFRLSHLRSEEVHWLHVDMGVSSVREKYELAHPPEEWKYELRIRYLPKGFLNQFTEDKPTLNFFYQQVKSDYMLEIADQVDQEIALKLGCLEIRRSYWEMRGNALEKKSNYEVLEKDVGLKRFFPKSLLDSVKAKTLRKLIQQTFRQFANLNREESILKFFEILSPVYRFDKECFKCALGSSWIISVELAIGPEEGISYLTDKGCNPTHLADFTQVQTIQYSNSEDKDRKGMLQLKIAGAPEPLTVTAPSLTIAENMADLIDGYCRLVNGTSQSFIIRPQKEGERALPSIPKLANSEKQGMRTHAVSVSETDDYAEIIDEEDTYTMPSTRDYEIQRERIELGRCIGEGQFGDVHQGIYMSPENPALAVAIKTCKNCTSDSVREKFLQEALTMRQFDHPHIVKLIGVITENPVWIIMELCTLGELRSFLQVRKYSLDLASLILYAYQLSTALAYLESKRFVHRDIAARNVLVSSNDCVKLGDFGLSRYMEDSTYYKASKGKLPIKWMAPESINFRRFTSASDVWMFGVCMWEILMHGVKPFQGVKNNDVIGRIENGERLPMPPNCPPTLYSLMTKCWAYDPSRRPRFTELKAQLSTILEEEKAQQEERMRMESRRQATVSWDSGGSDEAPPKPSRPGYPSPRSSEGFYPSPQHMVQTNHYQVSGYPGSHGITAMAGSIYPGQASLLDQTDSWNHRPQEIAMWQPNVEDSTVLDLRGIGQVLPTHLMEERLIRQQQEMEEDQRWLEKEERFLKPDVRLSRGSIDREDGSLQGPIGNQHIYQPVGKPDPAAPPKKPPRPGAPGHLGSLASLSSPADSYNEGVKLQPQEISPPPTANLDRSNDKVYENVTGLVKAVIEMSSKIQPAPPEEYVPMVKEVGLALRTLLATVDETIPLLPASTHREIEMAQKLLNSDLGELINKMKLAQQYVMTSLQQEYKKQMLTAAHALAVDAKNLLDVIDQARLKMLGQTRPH", "details": "class symbols of Table 1, legend not given; cited from earlier work"}},
  "note": "Structures can show the parent of a compound that is named as a salt. Where two headings read alike, the source gives them in different places.",
  "data": [
    {"smiles": "CN(c1ncccc1CNc1nc(Nc2ccc3c(c2)CC(=O)N3)ncc1C(F)(F)F)S(C)(=O)=O", "note": "[PF-562271 HCl]", "values": [
      {"measurement": "Other Targets", "setting": "Other Targets", "value": "CDK2/ CyclinE,CDK3/ CyclinE,CKD1/ CyclinB"}
    ]},
    {"smiles": "CNC(=O)c1ccccc1Nc1nc(Nc2ccc(N3CCOCC3)cc2OC)ncc1Cl", "note": "[TAE226]", "values": [
      {"measurement": "Other Targets", "setting": "Other Targets", "value": "Insulin Receptor, IGF-1R, c-Met"}
    ]},
    {"smiles": "CC(=O)NCC(=O)N1[C@@H]2CC[C@H]1c1ccc(Nc3ncc(C(F)(F)F)c(NC4CCC4)n3)cc12", "note": "[PF-03814735]", "values": [
      {"measurement": "Other Targets", "setting": "Other Targets", "value": "Aurora A, Aurora B, FLT1"}
    ]},
    {"smiles": "CS(=O)(=O)c1cccc(CNc2nc(Nc3ccc4c(c3)CCC(=O)N4)ncc2C(F)(F)F)c1", "note": "[PF-573228]", "values": [
      {"measurement": "inflammatory chemokine pathways", "setting": "incisional HTS model", "value": "suppressed inflammatory chemokine pathways"},
      {"measurement": "scarring in vivo", "setting": "incisional HTS model", "value": "attenuated scarring"}
    ]},
    {"smiles": "CN(c1ncccc1CNc1nc(Nc2ccc3c(c2)CC(=O)N3)ncc1C(F)(F)F)S(C)(=O)=O", "note": "[PF-562271]", "values": [
      {"measurement": "scar lesions (Masson's Trichrome)", "setting": "murine dorsal incisions; 15 μM FAKI in 10% DMSO", "value": "reduced scar lesions"},
      {"measurement": "scar lesions (Masson's Trichrome)", "setting": "murine dorsal incisions; 75 μM FAKI in 10% DMSO", "value": "reduced scar lesions"},
      {"measurement": "efficacy in treatment of advanced solid tumors", "setting": "advanced solid tumors; clinical trials", "value": "proven effective"},
      {"measurement": "pharmacokinetics in clinical trials", "setting": "advanced solid tumors; clinical trials", "value": "desired pharmacokinetics"},
      {"measurement": "reason for discontinuation as an anti-cancer agent", "setting": "advanced solid tumors; dosed orally", "value": "potential drug-drug interactions"},
      {"measurement": "major systemic toxicities", "setting": "advanced solid tumors; oral administration, clinical trials", "value": "nausea/vomiting and gastrointestinal-related adverse effects"}
    ]},
    {"smiles": "CC(C)=CCC/C(C)=C/CC/C(C)=C/CC/C(C)=C/CC/C(C)=C/CC/C(C)=C/CC/C(C)=C/CC/C(C)=C/CC/C(C)=C/CO", "note": "[Solanesol]", "values": [
      {"measurement": "FAK", "setting": "FAK", "value": "✓"}
    ]},
    {"smiles": "CNC(=O)c1ccc(Nc2ncc(C(F)(F)F)c(NCc3nccnc3N(C)S(C)(=O)=O)n2)cc1", "note": "[Defactinib]", "values": [
      {"measurement": "FAK", "setting": "FAK", "value": "✓"},
      {"measurement": "efficacy in treatment of advanced solid tumors", "setting": "advanced solid tumors; clinical trials", "value": "proven effective"}
    ]}
  ]
}
